The values that follow come from ChEMBL document CHEMBL1201862, “PubChem BioAssay data set” (2004).

By IC50 is commonly meant the concentration that inhibits the measured activity by half. In general, AC50 refers to the concentration at which the activity in the assay is half-maximal. As a reminder, the EC50 is the concentration giving half of the maximal effect.

Experiment [1] concerns the target T1, Sentrin-specific protease 8 (Homo sapiens, UniProt Q96LD8).
T1 sequence (Q96LD8 whole entry): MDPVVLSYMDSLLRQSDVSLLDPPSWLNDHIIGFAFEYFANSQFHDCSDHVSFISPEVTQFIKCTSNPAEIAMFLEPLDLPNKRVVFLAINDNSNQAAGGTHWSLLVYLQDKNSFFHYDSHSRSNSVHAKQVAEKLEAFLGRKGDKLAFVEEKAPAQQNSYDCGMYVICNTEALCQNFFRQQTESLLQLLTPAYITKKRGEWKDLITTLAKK
Description: inhibition of human SENP8 cleavage activity – biochemical, luminescence, SAR follow-up (AID 504501). It counts as functional.

In experiment [2] the target is T2, Caspase-3 (Homo sapiens, UniProt P42574).
T2 sequence (P42574 whole entry): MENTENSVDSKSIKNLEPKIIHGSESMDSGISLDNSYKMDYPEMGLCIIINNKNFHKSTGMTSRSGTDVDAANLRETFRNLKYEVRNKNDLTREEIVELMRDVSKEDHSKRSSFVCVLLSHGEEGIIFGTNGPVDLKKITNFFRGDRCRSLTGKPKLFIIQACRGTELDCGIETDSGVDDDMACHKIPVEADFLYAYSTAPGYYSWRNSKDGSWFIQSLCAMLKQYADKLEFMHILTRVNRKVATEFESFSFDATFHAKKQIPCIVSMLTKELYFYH
Description: SAR Analysis of small molecule inhibitors of Sentrin-specific proteases (SENPs) using a Caspase-3 Selectivity assay. [Related pubchem assays (depositor defined):AID2540, AID2599, AID434973, AID489001]. It counts as functional.

For experiment [3], the target named is T3, Sentrin-specific protease 6 (Homo sapiens, UniProt Q9GZR1).
T3 sequence (Q9GZR1 whole entry): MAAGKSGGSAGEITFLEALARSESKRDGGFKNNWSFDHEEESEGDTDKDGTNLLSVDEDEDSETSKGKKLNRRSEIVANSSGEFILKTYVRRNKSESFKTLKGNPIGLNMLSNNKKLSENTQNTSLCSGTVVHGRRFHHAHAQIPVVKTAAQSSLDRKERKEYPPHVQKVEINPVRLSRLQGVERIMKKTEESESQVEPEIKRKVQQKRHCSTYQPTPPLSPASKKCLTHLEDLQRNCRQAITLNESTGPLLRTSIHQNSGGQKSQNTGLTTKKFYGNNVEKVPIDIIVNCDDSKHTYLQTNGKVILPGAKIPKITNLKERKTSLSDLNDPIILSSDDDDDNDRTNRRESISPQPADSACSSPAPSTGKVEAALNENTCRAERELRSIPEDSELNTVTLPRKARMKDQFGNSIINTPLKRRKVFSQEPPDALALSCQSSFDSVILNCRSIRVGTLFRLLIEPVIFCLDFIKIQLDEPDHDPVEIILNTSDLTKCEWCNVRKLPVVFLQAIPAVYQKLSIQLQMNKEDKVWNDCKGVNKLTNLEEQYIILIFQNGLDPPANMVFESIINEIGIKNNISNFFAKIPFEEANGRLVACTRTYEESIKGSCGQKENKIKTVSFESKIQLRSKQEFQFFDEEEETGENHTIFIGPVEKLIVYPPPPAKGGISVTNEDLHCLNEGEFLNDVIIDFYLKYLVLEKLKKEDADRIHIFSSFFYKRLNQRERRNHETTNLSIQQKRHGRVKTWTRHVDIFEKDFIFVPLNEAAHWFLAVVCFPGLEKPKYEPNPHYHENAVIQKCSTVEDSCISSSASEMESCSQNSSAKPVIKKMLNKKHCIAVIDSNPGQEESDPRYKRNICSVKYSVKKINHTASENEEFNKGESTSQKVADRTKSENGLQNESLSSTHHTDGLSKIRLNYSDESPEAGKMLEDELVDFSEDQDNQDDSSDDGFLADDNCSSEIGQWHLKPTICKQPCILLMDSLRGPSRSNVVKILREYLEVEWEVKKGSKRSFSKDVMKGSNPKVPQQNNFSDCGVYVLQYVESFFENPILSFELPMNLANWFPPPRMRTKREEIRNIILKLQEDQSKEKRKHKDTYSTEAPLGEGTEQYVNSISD
The experiment in a line: SAR Analysis of small molecule inhibitors of Sentrin-specific protease 6 (SENP6) using a Luminescent assay. [Related pubchem assays (depositor defined):AID2582, AID2599]. It counts as functional.

In experiment [4] the target is T4, Sentrin-specific protease 7 (Homo sapiens, UniProt Q9BQF6).
T4 sequence (Q9BQF6 whole entry): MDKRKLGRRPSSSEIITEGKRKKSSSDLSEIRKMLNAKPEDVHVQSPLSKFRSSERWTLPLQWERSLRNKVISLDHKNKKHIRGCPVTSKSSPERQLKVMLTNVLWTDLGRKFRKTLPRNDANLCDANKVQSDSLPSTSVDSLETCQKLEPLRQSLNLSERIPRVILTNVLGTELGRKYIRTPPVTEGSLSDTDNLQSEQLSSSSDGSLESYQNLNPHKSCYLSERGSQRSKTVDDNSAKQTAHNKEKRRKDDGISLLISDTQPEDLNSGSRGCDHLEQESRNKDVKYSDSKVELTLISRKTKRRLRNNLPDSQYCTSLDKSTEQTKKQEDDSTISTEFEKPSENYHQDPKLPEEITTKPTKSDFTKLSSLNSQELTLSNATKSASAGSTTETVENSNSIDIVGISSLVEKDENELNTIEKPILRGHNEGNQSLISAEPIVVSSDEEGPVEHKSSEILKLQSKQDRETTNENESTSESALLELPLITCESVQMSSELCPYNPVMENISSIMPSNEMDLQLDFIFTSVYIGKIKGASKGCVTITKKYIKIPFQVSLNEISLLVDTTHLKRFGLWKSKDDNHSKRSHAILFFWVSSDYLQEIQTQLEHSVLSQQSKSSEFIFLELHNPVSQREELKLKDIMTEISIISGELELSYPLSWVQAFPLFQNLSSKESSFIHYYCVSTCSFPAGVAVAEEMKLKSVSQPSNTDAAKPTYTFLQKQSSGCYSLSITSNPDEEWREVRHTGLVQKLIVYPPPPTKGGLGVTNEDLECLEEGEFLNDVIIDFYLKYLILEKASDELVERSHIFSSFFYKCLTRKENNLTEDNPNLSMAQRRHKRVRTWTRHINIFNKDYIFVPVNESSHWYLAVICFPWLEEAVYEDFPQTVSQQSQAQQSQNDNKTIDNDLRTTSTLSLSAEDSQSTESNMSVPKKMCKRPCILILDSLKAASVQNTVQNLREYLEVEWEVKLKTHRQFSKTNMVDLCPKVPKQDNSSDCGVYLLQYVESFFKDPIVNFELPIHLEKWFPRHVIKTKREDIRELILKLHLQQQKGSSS
The experiment in a line: inhibition of human SENP7 cleavage activity – biochemical, luminescence, SAR follow-up (AID 504497). It is filed as functional.

Experiment [5] concerns Escherichia coli. Description: microbe, parasite or virus in culture.
The subject of experiment [6] is Escherichia coli. The experiment in a line: microbe, parasite or virus in culture. The source holds these as a separate data set.
In experiment [7] the target is Cysteine protease ATG4B (Homo sapiens, UniProt Q9Y4P1). It counts as functional.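 Further: Fluorescence-based dose-response confirmation assay measuring inhibition of ATG4B activity.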
Experiment [8] has as its target Phospholipase A2 (Homo sapiens, UniProt P04054). It is filed as functional.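 Further: confirmatory dose-response counterscreen on phospholipase A2, testing hits that came from an ultra-high-throughput screen for ATG4B inhibitors.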
The nature of experiment [9]: Luminescence Cell-Based Dose Retest to Confirm Inhibitors of Cancer Stem Cells. [Related pubchem assays (depositor defined):AID2717, AID2721]. It counts as functional. To be noted: Homo sapiens.
Experiment [10] concerns the target Heat shock protein HSP 90-alpha (Homo sapiens, UniProt P07900). It is filed as functional, organism-based.
Experiment [11] deals with Voltage-gated inwardly rectifying potassium channel KCNH2 (Homo sapiens, UniProt Q12809). To be noted: Potency.
The target in experiment [12] is T5, Short transient receptor potential channel 4 (Mus musculus, UniProt Q9QUQ5).
T5 sequence (Q9QUQ5 whole entry): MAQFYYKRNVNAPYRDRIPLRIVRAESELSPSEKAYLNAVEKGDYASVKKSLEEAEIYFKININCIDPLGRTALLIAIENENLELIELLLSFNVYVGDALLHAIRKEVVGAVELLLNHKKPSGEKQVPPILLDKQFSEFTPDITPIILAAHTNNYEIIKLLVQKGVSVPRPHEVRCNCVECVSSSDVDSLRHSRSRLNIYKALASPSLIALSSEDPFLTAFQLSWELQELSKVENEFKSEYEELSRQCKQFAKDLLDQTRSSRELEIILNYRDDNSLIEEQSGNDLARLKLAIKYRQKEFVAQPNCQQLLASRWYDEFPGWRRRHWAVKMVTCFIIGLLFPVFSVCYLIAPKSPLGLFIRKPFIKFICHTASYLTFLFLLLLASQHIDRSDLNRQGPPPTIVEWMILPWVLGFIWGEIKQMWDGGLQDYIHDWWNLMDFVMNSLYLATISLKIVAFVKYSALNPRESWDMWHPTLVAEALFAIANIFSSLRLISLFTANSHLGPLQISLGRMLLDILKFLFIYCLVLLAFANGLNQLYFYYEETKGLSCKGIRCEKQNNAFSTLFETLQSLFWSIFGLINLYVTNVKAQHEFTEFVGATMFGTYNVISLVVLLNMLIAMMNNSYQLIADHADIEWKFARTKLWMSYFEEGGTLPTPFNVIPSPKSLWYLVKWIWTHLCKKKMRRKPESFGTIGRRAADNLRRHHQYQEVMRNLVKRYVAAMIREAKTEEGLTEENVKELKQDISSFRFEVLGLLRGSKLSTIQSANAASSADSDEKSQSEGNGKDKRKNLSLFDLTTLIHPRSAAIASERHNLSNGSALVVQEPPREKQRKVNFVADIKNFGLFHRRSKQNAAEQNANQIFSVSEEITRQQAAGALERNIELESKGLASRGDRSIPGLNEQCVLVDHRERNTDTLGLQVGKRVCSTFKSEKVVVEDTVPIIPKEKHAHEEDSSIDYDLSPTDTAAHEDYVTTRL
Description: block of DAMGO-driven TRPC4 calcium entry – cell-based, HEK293 TRPC4/mu-opioid, Fluo-4 calcium, dose response (AID 434942).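 Further: potency of inhibitors blocking the TRPC4 calcium response.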 It counts as functional.

Experiment [13] addresses Beta-galactosidase (Escherichia coli, UniProt Q8VNN2). Description: PubChem AID 485352. It counts as functional.
The target of experiment [14] is Type-1 angiotensin II receptor (Homo sapiens, UniProt P30556). The experiment in a line: antagonism of angiotensin II type 1 receptor – cell-based, uHTS hits, selectivity assay for APJ receptor antagonist project, dose response (AID 463214).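 Further: antagonist potency against angiotensin II stimulated AT1 response.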 It counts as functional.
The target in experiment [15] is T5, Short transient receptor potential channel 4. The experiment in a line: calcium entry via TRPC4 opening agents – cell-based, HEK293 TRPC4/mu-opioid, Fluo-4 calcium, dose response (AID 434937). It counts as functional.
For experiment [16], the target named is Delta-type opioid receptor (Homo sapiens, UniProt P41143). The experiment in a line: Counterscreen for agonists of heterodimerization of the mu 1 (OPRM1) and delta 1 (OPRD1) opioid receptors: Luminescence-based cell-based high throughput dose response assay to identify agonists of OPRD1 homodimerization. [Related pubchem assays (depositor defined):AID504326, AID504355, AID504692, AID504904, AID504905]. It is filed as functional. On the technique in general: The purpose of a counterscreen is to sort out artefacts and off-target activity.

Experiment [17] addresses Mu-type opioid receptor (Homo sapiens, UniProt P35372). The experiment in a line: Counterscreen for agonists of heterodimerization of the mu 1 (OPRM1) and delta 1 (OPRD1) opioid receptors: Luminescence-based cell-based high throughput dose response assay to identify agonists of OPRM1 homodimerization. It counts as functional.
Experiment [18] addresses 5-hydroxytryptamine receptor 5A (Homo sapiens, UniProt P47898). The experiment in a line: Counterscreen for agonists of OPRM1-OPRD1 heterodimerization: luminescence-based cell-based high throughput dose response assay to identify agonists of 5-hydroxytryptamine (serotonin) 5A receptor (HTR5A). [Related pubchem assays (depositor defined):AID504326, AID504355, AID504692, AID504904, AID504905]. It is filed as functional.

Structures are written as SMILES. Active and inactive are the calls of the source.

Voltage-gated inwardly rectifying potassium channel KCNH2, sequence (Q12809 whole entry): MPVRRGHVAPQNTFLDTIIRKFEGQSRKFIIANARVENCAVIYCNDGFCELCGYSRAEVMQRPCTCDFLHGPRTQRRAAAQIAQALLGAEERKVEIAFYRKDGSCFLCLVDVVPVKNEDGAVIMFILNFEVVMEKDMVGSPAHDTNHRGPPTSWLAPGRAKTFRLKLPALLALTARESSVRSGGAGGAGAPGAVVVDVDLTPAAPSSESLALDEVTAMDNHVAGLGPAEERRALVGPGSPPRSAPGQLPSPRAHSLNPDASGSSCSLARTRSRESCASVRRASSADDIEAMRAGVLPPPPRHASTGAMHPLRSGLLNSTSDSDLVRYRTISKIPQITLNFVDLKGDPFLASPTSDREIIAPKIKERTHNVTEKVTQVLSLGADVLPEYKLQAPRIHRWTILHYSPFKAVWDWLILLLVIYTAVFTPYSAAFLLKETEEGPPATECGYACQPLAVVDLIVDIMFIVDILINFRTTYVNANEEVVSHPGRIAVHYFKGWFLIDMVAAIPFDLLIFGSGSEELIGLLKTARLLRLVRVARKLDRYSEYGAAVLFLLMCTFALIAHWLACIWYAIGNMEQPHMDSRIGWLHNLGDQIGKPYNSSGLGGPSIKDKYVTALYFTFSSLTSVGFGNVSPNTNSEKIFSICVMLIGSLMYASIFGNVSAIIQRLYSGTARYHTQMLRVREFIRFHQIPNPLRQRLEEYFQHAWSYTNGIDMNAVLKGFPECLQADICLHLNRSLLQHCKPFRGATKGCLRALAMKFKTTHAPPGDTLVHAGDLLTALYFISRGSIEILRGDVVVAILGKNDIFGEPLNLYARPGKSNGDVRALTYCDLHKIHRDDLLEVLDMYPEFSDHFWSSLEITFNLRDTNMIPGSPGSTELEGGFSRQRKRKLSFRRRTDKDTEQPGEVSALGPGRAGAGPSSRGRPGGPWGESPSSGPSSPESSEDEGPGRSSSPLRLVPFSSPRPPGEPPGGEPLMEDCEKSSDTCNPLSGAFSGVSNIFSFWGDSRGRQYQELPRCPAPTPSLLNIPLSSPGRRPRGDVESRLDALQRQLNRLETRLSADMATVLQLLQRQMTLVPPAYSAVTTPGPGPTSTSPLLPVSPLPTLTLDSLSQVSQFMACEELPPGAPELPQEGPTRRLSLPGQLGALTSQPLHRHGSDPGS
Type-1 angiotensin II receptor, sequence (P30556 whole entry): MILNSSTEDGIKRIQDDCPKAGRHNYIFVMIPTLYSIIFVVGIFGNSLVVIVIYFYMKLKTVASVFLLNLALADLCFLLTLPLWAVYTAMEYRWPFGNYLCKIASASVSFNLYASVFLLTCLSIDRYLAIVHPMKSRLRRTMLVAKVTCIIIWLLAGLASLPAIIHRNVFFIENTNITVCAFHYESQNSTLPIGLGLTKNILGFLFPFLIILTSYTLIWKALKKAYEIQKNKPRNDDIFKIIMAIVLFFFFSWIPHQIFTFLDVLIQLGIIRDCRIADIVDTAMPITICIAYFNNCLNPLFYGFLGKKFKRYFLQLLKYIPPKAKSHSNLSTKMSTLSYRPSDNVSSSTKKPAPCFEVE
Beta-galactosidase, sequence (Q8VNN2 whole entry): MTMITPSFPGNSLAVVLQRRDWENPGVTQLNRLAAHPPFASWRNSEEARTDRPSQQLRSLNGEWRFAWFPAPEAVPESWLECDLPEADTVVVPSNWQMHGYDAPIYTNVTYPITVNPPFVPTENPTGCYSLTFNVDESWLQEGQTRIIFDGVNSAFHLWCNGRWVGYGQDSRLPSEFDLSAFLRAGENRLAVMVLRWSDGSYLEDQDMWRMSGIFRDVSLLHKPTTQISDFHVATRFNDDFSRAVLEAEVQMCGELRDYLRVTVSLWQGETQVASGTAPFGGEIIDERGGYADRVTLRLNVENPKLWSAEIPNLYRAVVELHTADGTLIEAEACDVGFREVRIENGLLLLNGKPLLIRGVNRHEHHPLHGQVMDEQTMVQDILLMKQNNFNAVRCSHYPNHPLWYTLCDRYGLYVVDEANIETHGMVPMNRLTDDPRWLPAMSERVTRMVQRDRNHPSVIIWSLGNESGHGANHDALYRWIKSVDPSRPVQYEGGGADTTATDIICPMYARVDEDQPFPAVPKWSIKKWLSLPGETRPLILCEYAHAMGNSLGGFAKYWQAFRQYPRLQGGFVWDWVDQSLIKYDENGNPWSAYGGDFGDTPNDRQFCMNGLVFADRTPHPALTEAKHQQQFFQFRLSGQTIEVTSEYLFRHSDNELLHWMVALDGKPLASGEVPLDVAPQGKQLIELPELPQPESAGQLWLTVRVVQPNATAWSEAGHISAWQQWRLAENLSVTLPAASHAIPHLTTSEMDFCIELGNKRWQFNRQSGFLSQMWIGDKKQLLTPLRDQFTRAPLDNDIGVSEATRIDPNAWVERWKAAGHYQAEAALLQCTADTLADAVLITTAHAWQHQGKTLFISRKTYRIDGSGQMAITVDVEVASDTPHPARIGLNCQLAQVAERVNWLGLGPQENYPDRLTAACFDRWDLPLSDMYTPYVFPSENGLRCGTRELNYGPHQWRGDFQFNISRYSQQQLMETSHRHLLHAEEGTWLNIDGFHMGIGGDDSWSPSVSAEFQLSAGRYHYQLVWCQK
Cysteine protease ATG4B, sequence (Q9Y4P1 whole entry): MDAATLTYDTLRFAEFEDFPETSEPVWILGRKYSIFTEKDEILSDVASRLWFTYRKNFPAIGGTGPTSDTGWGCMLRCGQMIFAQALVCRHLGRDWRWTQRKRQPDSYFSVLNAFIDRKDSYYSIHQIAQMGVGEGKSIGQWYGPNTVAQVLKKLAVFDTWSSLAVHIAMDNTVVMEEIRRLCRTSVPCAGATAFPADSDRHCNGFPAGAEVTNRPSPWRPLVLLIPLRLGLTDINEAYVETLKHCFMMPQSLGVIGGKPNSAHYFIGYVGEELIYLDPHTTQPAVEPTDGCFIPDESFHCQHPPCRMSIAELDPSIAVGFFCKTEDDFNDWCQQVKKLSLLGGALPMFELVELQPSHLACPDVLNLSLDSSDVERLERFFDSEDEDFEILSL
Phospholipase A2, sequence (P04054 whole entry): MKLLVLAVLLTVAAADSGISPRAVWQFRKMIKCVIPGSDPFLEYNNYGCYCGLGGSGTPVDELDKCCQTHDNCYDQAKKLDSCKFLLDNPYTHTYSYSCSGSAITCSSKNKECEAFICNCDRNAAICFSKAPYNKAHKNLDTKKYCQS
5-hydroxytryptamine receptor 5A, sequence (P47898 whole entry): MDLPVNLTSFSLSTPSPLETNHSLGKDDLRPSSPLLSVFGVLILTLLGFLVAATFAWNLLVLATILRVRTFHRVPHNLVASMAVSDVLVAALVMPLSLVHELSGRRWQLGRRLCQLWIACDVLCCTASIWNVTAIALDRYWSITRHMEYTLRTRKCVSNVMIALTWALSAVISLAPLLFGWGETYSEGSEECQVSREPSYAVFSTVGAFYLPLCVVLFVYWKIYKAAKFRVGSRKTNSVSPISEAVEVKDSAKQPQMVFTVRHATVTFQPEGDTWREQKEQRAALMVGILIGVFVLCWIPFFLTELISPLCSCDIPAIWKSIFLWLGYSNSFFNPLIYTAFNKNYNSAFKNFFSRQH
Mu-type opioid receptor, sequence (P35372 whole entry): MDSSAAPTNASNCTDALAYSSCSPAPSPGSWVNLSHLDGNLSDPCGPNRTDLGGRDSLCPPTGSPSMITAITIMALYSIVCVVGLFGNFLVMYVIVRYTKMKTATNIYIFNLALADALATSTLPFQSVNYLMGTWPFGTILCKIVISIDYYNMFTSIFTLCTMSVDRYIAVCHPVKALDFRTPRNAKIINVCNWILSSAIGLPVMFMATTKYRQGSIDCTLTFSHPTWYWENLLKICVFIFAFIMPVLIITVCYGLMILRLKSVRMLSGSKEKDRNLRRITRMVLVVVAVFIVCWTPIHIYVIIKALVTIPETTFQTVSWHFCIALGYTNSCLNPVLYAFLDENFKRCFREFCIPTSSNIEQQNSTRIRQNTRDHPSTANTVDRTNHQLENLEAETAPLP
Delta-type opioid receptor, sequence (P41143 whole entry): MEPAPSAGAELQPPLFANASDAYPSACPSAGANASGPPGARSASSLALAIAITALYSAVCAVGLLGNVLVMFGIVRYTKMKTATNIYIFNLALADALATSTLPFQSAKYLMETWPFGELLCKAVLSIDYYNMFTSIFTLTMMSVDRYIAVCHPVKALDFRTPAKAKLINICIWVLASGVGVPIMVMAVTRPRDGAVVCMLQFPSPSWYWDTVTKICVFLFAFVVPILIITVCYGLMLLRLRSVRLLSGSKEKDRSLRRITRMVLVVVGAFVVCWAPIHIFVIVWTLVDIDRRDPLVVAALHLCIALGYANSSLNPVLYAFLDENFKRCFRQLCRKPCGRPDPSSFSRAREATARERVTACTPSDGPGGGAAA

Consider `O=C(Nc1nc2c(Cl)cccc2s1)C1COc2ccccc2O1` (centres undefined), for which the IC50 in [1] is > 99 µM (inactive); in [2] it was > 99 µM (inactive); in experiment [3], > 99 µM (inactive); in [4], 79.7 µM (active).
Take `O=C(Nc1nc2ccc(Cl)cc2s1)c1cc2ccccc2o1`: the IC50 in experiment [1], in experiment [2], in experiment [3] and in experiment [4] was > 99 µM (inactive) throughout.
With `COCCCn1c(SCCc2ccccc2)nc2cc(OC)c(OC)cc2c1=N`, the AC50 is 51.3 µM (active) in experiment [5] and 37.6 µM (active) in experiment [6].
In the case of `O=C(CNCC1CCCCC1)Nc1ccccc1N1CCCCC1`, the values for the IC50 in experiment [7] and in [8] were 10.8 µM (active) and 9.35 µM (active), respectively.
As for `CC[C@@H]1Cc2cc(O)ccc2C2=C1c1ccc(O)cc1C[C@H]2CC`, the AC50 is 2.36 µM (active) in [9], 6.32 µM (active) in experiment [10] and 25.1 µM (inconclusive) in experiment [11].
`OCC1(Cc2ccc(Cl)cc2)CCN(Cc2ccccc2F)CC1`: in experiment [12], the EC50 is 5.96 µM (active). Also, the AC50 in [5] was 21.9 µM (active); in experiment [6], 88.9 µM (active).
Consider `Cc1ccc(C(=O)NCC(=O)OCC(=O)c2ccc(C)c([N+](=O)[O-])c2)cc1`, for which the EC50 in experiment [13] was > 40 µM (inactive). For the same compound, in experiment [14], the IC50 is reported as 36.4 µM (not active).
The corresponding values for `CSc1cccc(N=C2C(=O)Nc3ccccc32)c1` are > 40 µM (inactive) and > 40 µM (not active).
As to `Cc1sc2ccccc2c1CC1=NCCN1`, the AC50 in [11] was 35.5 µM (inconclusive).
As for `CCOC(=O)C1(CC2CCCCO2)CCN(Cc2cc(F)ccc2-n2cccn2)CC1` (centres undefined), the EC50 in experiment [15] was 0.473 µM (active); in experiment [16] it was > 92.5 µM (inactive); in experiment [17], > 92.5 µM (inactive); in experiment [18], > 92.5 µM (inactive).
As to `COC(=O)c1sc(N(C)C)c(C#N)c1-c1ccccc1`, the IC50 is 12.4 µM (active) in experiment [7] and 8.76 µM (active) in experiment [8].
